# Experimental data as given in US7897401B2, “Control of apoptosis by controlling the propensity of ceramide channel formation” (University of Maryland, College Park, priority 2005, dated 2011).
# How the values were obtained:
# Type in all cases: biochemical
# [1] = test system: C16-ceramide channels in the MOM of yeast mitochondria; test: Complex IV accessibility assay, isolated yeast mitochondria
# Description: (§1) The ability of the naturally-occurring C16-ceramide to form channels in the mitochondrial outer membranes of isolated yeast mitochondria was assessed via the complex IV accessibility assay. This assay measures the bidirectional flux of cytochrome c across the mitochondrial outer membrane (MOM) by monitoring its oxidation by complex IV of the mitochondrial inner membrane electron transport chain. The initial rate of cytochrome c oxidation when expressed as a percent of the rate measured in mitochondria with damaged outer membranes is a good measure of the permeability of the MOM to proapoptotic proteins. This method has an advantage over simply looking for the release of cytochrome c because both channel prevention and reversal by a potential inhibitor can be evaluated.
# Thus, mitochondria are isolated from wild type yeast and yeast strains expressing either human Bcl-2 or Bcl-xL according to previously published methods (Lee, A. et al. (1998) “THE ROLE OF YEAST VDAC GENES ON THE PERMEABILITY OF THE MITOCHONDRIAL OUTER MEMBRANE,” J. Membr. Biol. 161:173-181). Isolated yeast mitochondria are incubated with the naturally occurring C16-ceramide and its ability to form channels is evaluated according to the complex IV accessibility assay (Siskind, L. J. et al. (2002) “CERAMIDE CHANNELS INCREASE THE PERMEABILITY OF THE MITOCHONDRIAL OUTER MEMBRANE To SMALL PROTEINS,” J. Biol. Chem. 277:26796-26803). This assay measures the CN-sensitive oxidation of exogenously-added reduced cytochrome c by cytochrome c oxidase of the inner membrane. It measures the permeability of the mitochondrial outer membrane (MOM) to cytochrome c. […] Mitochondria are incubated with test agents (e.g., C16-ceramide) for a predetermined period of time (e.g., 5-20 minutes), reduced cytochrome c is added and the absorbance is monitored at 550 nm. […]
# The complex IV accessibility measures of the permeability of the MOM. The initial rate is expressed as a percentage of the rate of cytochrome c oxidation in mitochondria whose outer membranes are ruptured by hypotonic shock. […]
# [2] = test system: ceramide channels in the mitochondrial outer membrane (MOM); test: Adenylate kinase release assay in isolated rat liver mitochondria; conditions: for effect of preincubation on C16-ceramide permeabilization of the MOM and adenylate kinase release: 5 min preincubation, C16-ceramide 40 μg/mL, 10 min, low concentration potentiates, higher inhibits
# Description: The preparation yielded a mitochondrial suspension containing 10 mg of protein per mL. […] The mitochondria were then pelleted at 14,000 g for 5 min at 4° C. and the supernatant was kept on ice until assayed. […] The enzymes were added to the rest of the reaction mixture 1 min before the addition of the mitochondrial supernatant to allow a trace of ATP to be consumed. The activity of adenylate kinase was detected as an increase in absorbance at 340 nm. Since the activity of the kinase decays with time, even on ice, experiments were performed in sets and the activity of the first supernatant was assayed again at the end of the set. The values were fitted to a first order decay and all values within the set were corrected for the decay of the activity, based on the time delay before assay.
# To determine the effect of sphingosine pretreatment on ceramide permeabilization of the mitochondrial outer membrane, mitochondria were incubated at room temperature in the presence of varying concentrations of sphingosine for […] before addition of ceramide and incubation for 10 min. Untreated mitochondria and mitochondria hypotonically lysed (20 μl into 1.2 ml water) served as negative and positive controls, respectively.
# Experiments with C16-ceramide were performed in a similar way except as follows. The mitochondria were suspended in the above medium except that the 1 mM Tris buffer was replaced by 5 mM HEPES. To 1.0 mL of this medium at room temperature (RT) was added 17 μL of mitochondrial suspension that had been kept on ice at a concentration of 4 mg/mL. The final mitochondrial protein concentration during the experiment was 80 μg/mL. In the case of shocked mitochondria, the 1.0 mL of medium was replaced by water. Sphingosine was added, where appropriate, from a 0.25 mg/mL solution in DMSO. Typically 4-7 incubations were run in parallel. All samples were incubated for 5 min at RT. Then some samples received 0.4 mL of fatty acid depleted bovine serum albumin (BSA), 25 mg/mL, followed immediately by 20 μL of C16-ceramide dissolved in isopropanol at 2 mg/mL. After a 10-min incubation at RT, 10 μL of 4 mM PMSF was added followed by centrifugation. In these experiments 0.3 mL of mitochondrial supernatant was added to the adenylate kinase reaction mixture.
# [3] = Ability of sphingolipids to form channels in membranes
# Excerpt: The present invention establishes that sphingosine is capable of directly disassembling ceramide channels, thus proving the existence of this novel anti-apoptotic regulatory step. The ability of sphingosine, sphingosine-1-phosphate ([…]) and ceramide-1-phosphate the ability to form channels was investigated.
# yeast mitochondria = test: Ceramide-induced permeabilization in yeast mitochondria
# mammalian MOM = test: Ceramide-induced permeabilization of mammalian MOM; conditions: C16-ceramide; read-out: IC50 for inhibition of C16-ceramide-induced permeabilization of mammalian MOM
# [4] = test system: ceramide channel in planar phospholipid membrane; test: Electrophysiological recordings on planar phospholipid membranes; conditions: 0.15 μM protein added while stirring, voltage clamp, FIG. 16
# Excerpt: Planar phospholipid membranes were produced by the monolayer method (Montal, M. et al. (1972) “FORMATION OF BIMOLECULAR MEMBRANES FROM LIPID MONOLAYERs AND A STUDY OF THEIR ELECTRICAL PROPERTIES,” Proc. Natl. Acad. Sci. USA 69:3561-3566) as modified by Colombini, M. (1987) (“CHARACTERIZATION OF CHANNELS ISOLATED FROM PLANT MITOCHONDRIA,” Methods Enzymol. 148:465-475), across a 100-μm-diameter hole in a Saran partition. Monolayers were produced using a solution of 0.5% w/v asolectin, 0.5% w/v DiPhyPC, 0.1% w/v cholesterol in hexane. This technique produces solvent-free phospholipid membranes whose lipid composition (focusing on the polar head-groups) is similar to that found in the mitochondrial outer membrane. It differs from the natural membrane in lacking proteins.
# The aqueous solutions contained 1 mM MgCl2, and 5 mM Pipes pH 6.8 with KCl varying from 0.10 M to 1.0 M. The KCl concentration on one side of the membrane, referred to as the “trans” side, was always 0.10 M, whereas the other side (the “cis” side) was adjusted as needed. The transmembrane voltage was electronically clamped and the current through the membrane was recorded. The voltage values indicated are the voltage differences across the membrane cis side minus trans side.
# C2-ceramide was stirred into the aqueous solution on each side of the membrane from a solution in DMSO, generally 0.5 mg/ml. Single or multiple additions, typically […] each, yielding a final concentration of 2 μg/ml, were made to achieve a desired level of conductance. Sphingosine additions of 5 μl were made from a solution in DMSO (4 mg/mL) yielding a final concentration of 4 μg/mL.
# The observation that anti-apoptotic Bcl-2 family proteins inhibit ceramide channel formation in isolated yeast and rat liver mitochondria correlates with previous reports showing inhibition of ceramide-induced apoptosis in whole cells by these proteins. Thus the results directly tie ceramide-induced mitochondrial-mediated apoptosis with the Bcl-2 family of proteins known to regulate these events. To address whether the antiapoptotic proteins act directly on ceramide channels or work by an indirect action, their affects on ceramide channels in solvent-free planar phospholipid membranes was tested. This is a defined system free of other proteins. When C16-ceramide is added to the aqueous solution bathing one side of a planar phospholipid membrane, it results in discontinuous increases in conductance under voltage-clamp conditions, the defining characteristic of channel formation in membranes. These conductance increments are the enlargement of one ceramide channel rather than the formation of multiple ceramide channels in parallel (Siskind, L. J. et al. (2003) “ENLARGEMENT AND CONTRACTURE OF C2-CERAMIDE CHANNELS,” Biophys. J. 85:1560-1575). […]
# [5] = test system: ceramide channels in the MOM of rat liver mitochondria; test: Complex IV accessibility assay (cytochrome c oxidation), isolated rat liver mitochondria
# Excerpt: The amount of ceramide that needs to be added to mitochondria to achieve permeabilization of the MOM to proteins is high compared to physiological levels. However, it is not the absolute ceramide concentration in solution that is important, but rather the concentration of ceramide in the membrane. In addition, only a small percentage of the ceramide added to the solution actually inserts into the membrane. This issue was directly addressed by using radiolabeled ceramide and simultaneously measuring how much ceramide inserts into rat liver mitochondria and how much permeabilization is achieved in the MOM by measuring the accessibility of exogenously added cytochrome c. […] Levels measured in mitochondria in the early stages of apoptosis are 4 pmoles per nmole. Thus, the results are well within the physiological range. Note that after correcting for the membrane partitioning, long and short-chain ceramide have equal potency as expected from the model of the ceramide channel.
# as §1
# Thus, mitochondria are isolated from wild type yeast and yeast strains expressing either human Bcl-2 or Bcl-xL according to previously published methods (Lee, A. et al. (1998) “THE ROLE OF YEAST VDAC GENES ON THE PERMEABILITY OF THE MITOCHONDRIAL OUTER MEMBRANE,” J. Membr. Biol. 161:173-181). Isolated yeast mitochondria are incubated with the naturally occurring C16-ceramide and its ability to form channels is evaluated according to the complex IV accessibility assay (Siskind, L. J. et al. (2002) “CERAMIDE CHANNELS INCREASE THE PERMEABILITY OF THE MITOCHONDRIAL OUTER MEMBRANE To SMALL PROTEINS,” J. Biol. Chem. 277:26796-26803). This assay measures the CN-sensitive oxidation of exogenously-added reduced cytochrome c by cytochrome c oxidase of the inner membrane. […] Mitochondria are incubated with test agents (e.g., C16-ceramide) for a predetermined period of time (e.g., 5-20 minutes), reduced cytochrome c is added and the absorbance is monitored at 550 nm. […]
# [6] = test system: ceramide channels in mitochondrial outer membranes; test: Dihydroceramide inhibition of ceramide channel formation in mitochondrial outer membranes (rate of oxidation of exogenously-added cytochrome c)
# Excerpt: The permeability was monitored by recording the rate of oxidation of exogenously-added cytochrome c. Ceramide (C2) was present at all data points except for the highest amount of dihydroceramide (DHC2) added (29 nmol).
molecule,measurement,setting,value
CCCCCCCCCCCCC/C=C/[C@@H](O)[C@H](CO)NC(=O)CCCCCCCCCCCCCCC [C16-ceramide],channel formation in the MOM of isolated wild-type yeast mitochondria,"[1]; 10 min incubation, FIG. 13A",forms channels
CCCCCCCCCCCCC/C=C/[C@H](O)[C@@H](N)CO [L-threo sphingosine],permeabilization of the MOM to adenylate kinase after removal of excess compound with BSA,"[2]; 2.4 μg/mL for 5 min, then fatty acid depleted BSA, no ceramide added",no penneabilization of the MOM to adenylate kinase was observed
same,effect of preincubation on C16-ceramide permeabilization of the MOM and adenylate kinase release,[2],same biphasic effect
same,effect of preincubation on C16-ceramide permeabilization of the MOM and adenylate kinase release,[2]; listed as L-sphingosine,same results as D-sphingosine
"CCCCCCCCCCCCC/C=C/[C@@H](O)[C@@H](N)COP(=O)(O)O [S-1-P, sphingosine-1-phosphate]",ability to form channels,[3],destabilized membranes
CCCCOc1cc(C(=O)NCCN(CC)CC)c2ccccc2n1 [dibucaine],effect on ceramide C2-induced permeabilization,yeast mitochondria,inhibited
same,effect on ceramide C16-induced permeabilization,yeast mitochondria,somewhat potentiated
same,IC50,mammalian MOM,230 µM
CC(C)NCC(O)COc1cccc2ccccc12 (centres unmarked) [propranolol],effect on ceramide C2-induced permeabilization,yeast mitochondria,inhibited
same,effect on ceramide C16-induced permeabilization,yeast mitochondria,somewhat potentiated
same,IC50,mammalian MOM,410 µM
Bcl-2: full-length human Bcl-2 expressed in yeast cells,sensitivity to C16-ceramide channel formation of mitochondria from yeast expressing the protein,[1]; full-length human Bcl-2 expressed in yeast vs empty vector control,resistant to C16-ceramide channel formation
FL Bcl-xL: purified recombinant full-length anti-apoptotic protein Bcl-xL,effect on C16-ceramide channels (prevention and reversal) in MOM of isolated yeast mitochondria,"[1]; 20 μg protein, 20 μM C16-ceramide, 10 min each, FIG. 13D-F",prevention and reversal of the C16-ceramide channels was observed
same,effect on conductance of a stable C16-ceramide channel,[4],dramatic decrease in the ceramide conductance to baseline
same,level at which disassembly of preformed C16-ceramide channels was observed,"[5]; C16-ceramide before protein (reversal), biphasic, FIG. 15A",≤ 5 µg
same,level giving almost complete prevention of C16-ceramide channel formation,"[5]; protein 10 min before 20 μM C16-ceramide 10 min, FIG. 15A",1.5 µg
ceramide-1-phosphate [C-1-P],ability to form channels,[3],without reproducible effect
dihydroceramide,effect on already formed ceramide channels,[6],does not induce channel disassembly
same,"level that inhibits ceramide channel formation, relative to the ceramide level","[6]; found in liposomes and isolated mitochondria, FIG. 11 with C2-ceramide",10%
same,permeabilization of the MOM to cytochrome c,[5]; inserts into mitochondrial membranes to the same degree as ceramide,lack of effect
